Measured values reported in patent publication US8822433B2, “Complex combining an organic silicon derivative with hyaluronic and acid calibrated fragments, for preventive and repairing action of cutaneous damages” (Exsymol S.A.M., priority 2008, dated 2014).

Experiments:
[1] = system: reconstructed human epidermis model (RHE) keratinocytes; test: Ki67 immunotracking of cell proliferation on reconstructed human epidermis (tests 1 and 4); type: cell-based; details: for % cells expressing Ki67/number of total cells (% in relation to the control): vs PBS control
Experimental: (§1) As purely an indication, the invention is hereafter illustrated by the following tests above described in the specification (tests 1 to 3), and a comparative study (test 4). In tests 1, 2 and 4, the experimental studies have been carried out on a reconstructed human epidermis model (RHE, supplier: SkinEthic®) whose interest is a strong homology with human epidermis.
(§2) The culture of RHE consisted in placing them in a “MCDB 153” growth medium (supplier : SkinEthic®) containing […] of insulin, 1.5 mM of CaCl2 and […] of gentamycine, for 24 hours at 37° C. and 5% CO2.
The observation of cellular proliferation is achieved with the immunotracking technique (Gerdes and al., Int. J. Cancer (1983), vol. 31, pp. 13-20) by using the “Ki67” cell proliferation tracer, for the three following configurations (after a 100 1 twice-daily deposit on RHE): • case 1: PBS buffer solution (control) • case 2: HA fragments 150-600 kDa (concentrations 2 and 5%) • case 3: MSH complex (concentrations 2 and 5%)
Identically to the here-above test 1, keratinocytes' cellular proliferation is observed on reconstructed human epidermis RHE (with the immunotracking technique) for: • the MSH complex according to the invention (based on 150-600 kDa HA fragments) • the dimethylsilanediol hyaluronate marketed by the applicant under the “D.S.H. CN®” brand mark. • D.S.H. CN® is an organo-silicon product resulting from the combination of dimethylsilanediol with hyaluronic acid of high molecular weight (1500 to 2200 kDa HA fragments).

[2] = system: IL1α; test: ELISA dosage of pro-inflammatory interleukin IL1 in RHE culture supernatant (test 2); type: cell-based, human; details: for IL1α quantity: RHE supernatant after 24 hours of treatment
Experimental: as §1, §2
(§3) The culture of RHE is identical to the one of the herebefore test 1. The dosage of the IL1 and IL8 pro-inflammatory interleukines is achieved on a supernatant resulting from culture medium after 24 hours of treatment, with the help of ELISA dosage kits (R&D System Quantikine Immunoassay, D800C, DTA00C and DLA50), and for identical configurations to those of the above test 1.

[3] = system: IL8; test: ELISA dosage of pro-inflammatory interleukin IL8 in RHE culture supernatant (test 2); type: cell-based, human; details: for IL8 quantity: RHE supernatant after 24 hours of treatment
Experimental: as §1, §2, §3

[4] = system: bovine hyaluronidases; test: Deterioration kinetic with hyaluronidases, agarose gel electrophoresis (test 3); type: in vitro ADME; details: 5, 15 and 30 min reaction at 37° C.; compared to fragmented HA non combined
Experimental: The experimental study consisted in measuring the deterioration kinetic of the MSH complex according to the invention submitted in vitro to bovine hyaluronidases, by electrophoresis on agarose gel. 10 1 of 1 mg/ml hyaluronidases are mixed to 50 1 of complex in a PBS buffer solution during 30 minutes at 37° C.
Successively at 5, 15 and 30 minutes, 10 1 of reaction mixture are taken, then heated at 95° C. in order to stop the enzymatic reaction. These 10 1 are then deposited on an agarose gel and a suitable stain (Stains all®) is used for the electrophoresis disclosure.

monomethylsilanetriol combined with one or several hyaluronic acid fragments of molecular weight between 150 and 600 kDa [MSH complex]
cytostimulation ([1]; compared to non combined fragmented HA): potentiated cytostimulation
% cells expressing Ki67/number of total cells (% in relation to the control) ([1]; concentration 2.5%, twice-daily deposit, three independent experiments): +14 (±1.0) %
% cells expressing Ki67/number of total cells (% in relation to the control) ([1]; concentration 5%, twice-daily deposit, three independent experiments): +63 (±0.5) %
% cells expressing Ki67/number of total cells (% in relation to the control) ([1]; test 4 (Table 4), concentration 5%): +69.5 (±3.1) %
induction of pro-inflammatory cytokines ([2]; RHE, 24 hours, compared with control, IL1 and IL8): No significant induction
IL1α quantity ([2]; concentration 2.5%): 3.5 (±1.8) pg/ml
IL1α quantity ([2]; concentration 5%): 3.4 (±0.8) pg/ml
IL8 quantity ([3]; concentration 2.5%): 20.1 (±7.2) pg/ml
IL8 quantity ([3]; concentration 5%): 34.8 (±13.7) pg/ml
IL8 type-interleukines' rate ([3]; in relation to the control and to the non combined HA fragment): reduction
distribution of HA with a high molecular weight after hyaluronidase treatment [4]: more important distribution of HA with a high molecular weight
